1 molecule from patent publication US11866708B2, “Tailored modulation of gene regulation programs via functional enhancer RNA” (Board of Regents, The University of Texas System, priority 2019, dated 2024) can be followed below.

This assay concerns TNFSF10. Briefly: TNFSF10 and eRNA expression with TIC10 treatment. It counts as cell-based, human. The conditions noted are these: TIC10 treatment 48 hours; FIG. 6F left.

Description: For the negative control experiment, 5 uM of TIC10 (SML1068, Sigma-Aldrich) was treated for 48 hrs to activate the apoptosis pathway by inducing the level of TNFSF10 expression.

Take `Cc1ccccc1CN1C(=O)C2=C(CCN(Cc3ccccc3)C2)N2CCN=C12` [TIC10]: the TNFSF10 expression entry is given as “induced TNFSF10 expression significantly” and the “expression of the virus inducible eRNAs associated with the TNFSF10 gene” value was “did not affect expression”.
